Laboratory results taken from patent US6107549A, “Genetically engineered plant resistance to thiazopyr and other pyridine herbicides” (Monsanto Company, priority 1999, dated 2000).

Assays:
porcine liver esterase = assay: Pyridine-esterase activity assay with porcine liver esterase; assay type: biochemical; conditions: for esterase activity against substrate: commercially available preparations of porcine liver esterase
Procedure: (§1) Esterase activity assays. Esterase activity was measured in vitro by conversion of either [^14 C]thiazopyr or [^14 C]MON 14300 to their corresponding monoacid. Pyridine-esterase activity was assayed during protein purification and from tissue extracts of transgenic plants. The homogenizing buffer for plant tissues consisted of 100 mM Tris pH 8.0, 1 mM EDTA, 1 mM DTT, and 10% glycerol in water. Plant tissues (1 g/ml buffer) including leaves, seeds, flowers, seedlings, etc. were homogenized in conical centrifuge tubes using a spinning pestle at 4° C. Following centrifugation (12,000× g), the supernatant (250 μl) was assayed immediately for esterase activity by incubation with [^14 C]thiazopyr or [^14 C]MON 14300 (4 μg) in 0.1 M Tris pH 8.0 buffer (50 μl) at 37° C. The reaction was sampled (100 μL) at various times (0.5 to 100 hr) to generate a kinetic profile of monoacid formation. The reaction was stopped by addition of 1% trifluoroacetic acid in acetonitrile (v/v, 150 μl). Following centrifugation (12,000× g for 3 min), the supernatant was analyzed by HPLC/RAD (radioactivity detection) to resolve the monoacid from the parent herbicide and other metabolites. Control reactions in the absence of the esterase recovered un-reacted thiazopyr or MON 14300 for the duration of experiments. Esterase activity was also assayed during protein purification following a similar procedure except a single time-point (1-2 hrs) of incubation was selected within the linear range of reaction. In vitro assays also employed three commonly used calorimetric (p-nitrophenyl butyrate) or fluorescent (4-methyl umbelliferyl butyrate and 5-bromo-4-chloro-3-indolylacetate) substrates. These substrates are useful in rapidly and qualitatively detecting general esterase activity.
Purification of pyridine-esterases from porcine and rabbit liver. Porcine and rabbit liver esterases, obtained commercially as (NH4)2 SO4 suspensions, were desalted using a disposable SEPHADEX™ G25 size exclusion column (Pharmacia Biotech). Proteins (1 to 10 mg) were initially separated on a strong anion exchange column (MONO Q™, Pharmacia Biotech) at 4° C. The column was linearly programmed in 30 minutes from 0 to 0.4 M KCl in 10 mM Tris buffer, pH 7.4 at a flow rate of 1 m/min. Subsequently, the column was programmed from 0.4 to 1.0 M KCl in 10 min. Effluent was monitored by UV (280 nm) and fractions were collected at 1 ml intervals. Effluent fractions were assayed for protein by Coomassie dye (Bio Rad Laboratory) and for pyridine-esterase activity. Protein purity was determined by SDS-PAGE on 10 to 15% gradient gels (Pharmacia Biotech) with visualization of proteins by silver staining.
Following anion exchange chromatography, fractions with the highest purity and activity were pooled. After desalting, the pooled fractions were further separated by isoelectric focusing (IEF) chromatography on a MONO P™ column (Pharmacia Biotech) at 4° C. IEF chromotography was conducted at different pH ranges (3-9, 4-7, 5.5-6.5 or 4.5-5.5) using appropriate combinations of POLYBUFFERS™ (Pharmacia Biotech) and a flow rate of […]. Effluent fractions from IEF chromatography were analyzed for protein and pyridine-esterase activity. The protein purity of the fractions was determined by SDS-PAGE and IEF-PAGE.

pyridine-esterase = molecular target: T1, pyridine-esterase (Oryctolagus cuniculus, UniProt P12337, A196R/H30K); assay: Esterase activity in leaf extracts from R0 tomato and tobacco plants; assay type: biochemical, rabbit; conditions: R0 tomato and tobacco plants expressing the 60 kD esterase
T1 construct: made in house; host or cells: transgenic tobacco (Samson) and tomato (UC82B) plants, tissue extracts
T1 sequence (P12337 19-565 H30K/A196R): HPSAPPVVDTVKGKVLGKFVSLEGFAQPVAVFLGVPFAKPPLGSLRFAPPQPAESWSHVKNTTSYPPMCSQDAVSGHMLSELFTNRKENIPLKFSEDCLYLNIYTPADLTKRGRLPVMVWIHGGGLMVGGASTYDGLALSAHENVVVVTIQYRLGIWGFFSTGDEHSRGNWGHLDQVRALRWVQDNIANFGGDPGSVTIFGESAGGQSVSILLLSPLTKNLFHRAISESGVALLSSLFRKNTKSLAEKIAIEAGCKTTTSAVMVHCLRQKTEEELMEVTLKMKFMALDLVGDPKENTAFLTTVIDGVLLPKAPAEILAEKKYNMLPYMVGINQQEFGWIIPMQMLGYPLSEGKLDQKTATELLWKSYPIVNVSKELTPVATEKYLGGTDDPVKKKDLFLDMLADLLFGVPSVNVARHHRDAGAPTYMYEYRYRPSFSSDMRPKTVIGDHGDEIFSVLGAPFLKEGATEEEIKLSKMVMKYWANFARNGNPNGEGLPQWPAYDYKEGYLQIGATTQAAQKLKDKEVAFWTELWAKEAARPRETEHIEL
Procedure: as §1, with “Esterase activity was also assayed during protein purification following a similar procedure except a single time-point (1-2 hrs) of incubation was selected within the linear range of reaction. In vitro assays also employed three commonly used calorimetric (p-nitrophenyl butyrate) or fluorescent (4-methyl umbelliferyl butyrate and 5-bromo-4-chloro-3-indolylacetate) substrates. These substrates are useful in rapidly and qualitatively detecting general esterase activity.” left out

[1] = purified porcine esterase against thiazopyr, double reciprocal plot

| Compound | rate of hydrolysis compared with thiazopyr (porcine liver esterase; commercial porcine liver esterase) | esterase activity against substrate (porcine liver esterase) | hydrolysis by leaf extracts (pyridine-esterase) | Km (porcine liver esterase; [1]) [µM] | Vmax (porcine liver esterase; [1]) [nmol/min/mg] |
| --- | --- | --- | --- | --- | --- |
| COC(=O)c1c(C(F)F)nc(C(F)(F)F)c(C(=O)n2cccn2)c1CC(C)C [MON 14300] | hydrolyzed faster than thiazopyr | demonstrated activity | did demonstrate the hydrolysis |  |  |
| COC(=O)c1c(C(F)F)nc(C(F)(F)F)c(C2=NCCS2)c1CC(C)C [thiazopyr] |  | demonstrated activity | did demonstrate the hydrolysis | 320 | 10.8 |
